Results as given in ChEMBL document CHEMBL1201862, “PubChem BioAssay data set” (2004).
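Cultured in 96-well plates, cells were exposed to test compound for 48 hours across five concentrations. At the GI50, growth is halved.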 Active and inactive are the calls of the source. No stated cut-off is given here; in the data, active = GI50 up to about 1.1 µM and inactive = higher.

Tests used:
Test in all cases: NCI-60 cell line screen, 48 h
XF498 = test system: XF498
M19-MEL = test system: M19-MEL
DMS-273 = test system: DMS-273
DLD-1 = test system: DLD-1
SNB-78 = test system: SNB-78
LXFL 529 = test system: LXFL 529
KM-20L2 = test system: KM-20L2
DMS-114 = test system: DMS-114
RXF 631 = test system: RXF 631

SMILES	GI50 (XF498)	GI50 (M19-MEL)	GI50 (DMS-273)	GI50 (DLD-1)	GI50 (SNB-78)	GI50 (LXFL 529)	GI50 (KM-20L2)	GI50 (DMS-114)	GI50 (RXF 631)
O=C1CC(CC(=O)C2CCCCC2=O)C(=O)N1 (configuration not stated)	> 100 µM (inactive)	> 100 µM (inactive)	> 100 µM (inactive)	> 100 µM (inactive)	> 100 µM (inactive)	> 100 µM (inactive)	> 100 µM (inactive)	> 100 µM (inactive)	–
O=C1CCC(c2ccccc2)C(O)(C(=O)O)C1 (configuration not stated)	–	> 100 µM (inactive)	> 100 µM (inactive)	> 100 µM (inactive)	> 100 µM (inactive)	> 100 µM (inactive)	> 100 µM (inactive)	–	> 100 µM (inactive)
CC1=C(/C=C/C2=CC(=C\C(=O)O)/CC(C3=C(C)CCCC3(C)C)C2)C(C)(C)CCC1 (configuration not stated)	14.4 µM (inactive)	15.3 µM (inactive)	13.9 µM (inactive)	12.2 µM (inactive)	20.7 µM (inactive)	13.8 µM (inactive)	–	10.9 µM (inactive)	11.1 µM (inactive)
Oc1ccncc1-c1cnccc1O	–	> 100 µM (inactive)	> 100 µM (inactive)	> 100 µM (inactive)	> 100 µM (inactive)	> 100 µM (inactive)	–	> 100 µM (inactive)	–
CC(=O)O[C@]12CCCCC1C1(O)C(O)CCCCC12 (some centres not stated)	–	> 100 µM (inactive)	> 100 µM (inactive)	–	> 100 µM (inactive)	> 100 µM (inactive)	> 100 µM (inactive)	> 100 µM (inactive)	–
O=C(Nc1cccc(Cc2cccc(NC(=O)c3ccccc3)c2)c1)c1ccccc1	–	63 µM (inactive)	55 µM (inactive)	91.8 µM (inactive)	–	28.7 µM (inactive)	> 100 µM (inactive)	10.6 µM (inactive)	–
C=C(COC(C)=O)CC(OC(C)=O)c1ccccc1 (configuration not stated)	> 100 µM (inactive)	> 100 µM (inactive)	> 100 µM (inactive)	> 100 µM (inactive)	> 100 µM (inactive)	> 100 µM (inactive)	> 100 µM (inactive)	> 100 µM (inactive)	–
COc1cc(C2C(Cl)C(=O)N2n2cnc3ccccc3c2=O)ccc1O (configuration not stated)	–	> 100 µM (inactive)	> 100 µM (inactive)	> 100 µM (inactive)	> 100 µM (inactive)	> 100 µM (inactive)	> 100 µM (inactive)	89.1 µM (inactive)	–
O=C1NC2(CCCC2)C2CCCCC12O (configuration not stated)	> 100 µM (inactive)	> 100 µM (inactive)	> 100 µM (inactive)	> 100 µM (inactive)	> 100 µM (inactive)	> 100 µM (inactive)	–	> 100 µM (inactive)	> 100 µM (inactive)
CCOC(=O)N1C/C(=C\c2ccccc2)C(=O)/C(=C/c2ccccc2)C1	12.8 µM (inactive)	1.57 µM (inactive)	2.34 µM (inactive)	2.56 µM (inactive)	19.8 µM (inactive)	4.99 µM (inactive)	7.71 µM (inactive)	3.27 µM (inactive)	–
Cc1cc(C)cc(NC(=O)CCC(=O)C2CCC/C2=N\NC(=O)C(=O)NN)c1 (configuration not stated)	> 100 µM (inactive)	> 100 µM (inactive)	> 100 µM (inactive)	> 100 µM (inactive)	–	> 100 µM (inactive)	> 100 µM (inactive)	> 100 µM (inactive)	> 100 µM (inactive)
N#CC1=C(O)NC(O)=C(C#N)C1c1ccc(C2C(C#N)=C(O)NC(O)=C2C#N)cc1	> 100 µM (inactive)	67.8 µM (inactive)	> 100 µM (inactive)	55.7 µM (inactive)	> 100 µM (inactive)	> 100 µM (inactive)	> 100 µM (inactive)	> 100 µM (inactive)	> 100 µM (inactive)
Cc1ccc(S(=O)(=O)N(/N=C(\N)Oc2ccc(Cl)cc2)C(=N)Oc2ccc(Cl)cc2)cc1	> 100 µM (inactive)	> 100 µM (inactive)	> 100 µM (inactive)	> 100 µM (inactive)	> 100 µM (inactive)	> 100 µM (inactive)	> 100 µM (inactive)	> 100 µM (inactive)	–
c1cc(N(CCn2cccn2)CCn2cccn2)cc(N(CCn2cccn2)CCn2cccn2)c1	77.6 µM (inactive)	> 100 µM (inactive)	> 100 µM (inactive)	> 100 µM (inactive)	> 100 µM (inactive)	> 100 µM (inactive)	> 100 µM (inactive)	> 100 µM (inactive)	> 100 µM (inactive)
O=C1CCC[C@]2(CCCC(=O)N2)C1	> 100 µM (inactive)	> 100 µM (inactive)	> 100 µM (inactive)	> 100 µM (inactive)	> 94 µM (inactive)	> 100 µM (inactive)	> 100 µM (inactive)	> 100 µM (inactive)	> 100 µM (inactive)
O=C1NC(=S)NC(=O)C1=Cc1ccc([N+](=O)[O-])o1	31.6 µM (inactive)	19.6 µM (inactive)	18.9 µM (inactive)	16 µM (inactive)	23.5 µM (inactive)	16.5 µM (inactive)	20.1 µM (inactive)	17.8 µM (inactive)	19.3 µM (inactive)
O=[N+]([O-])c1ccc(/C=C/c2csnn2)cc1	–	> 100 µM (inactive)	–	> 100 µM (inactive)	> 100 µM (inactive)	> 100 µM (inactive)	–	> 100 µM (inactive)	–
CC1(C)CC(N2CCN(C3CC(C)(C)NC(C)(C)C3)CC2)CC(C)(C)N1	> 100 µM (inactive)	–	> 100 µM (inactive)	> 100 µM (inactive)	> 100 µM (inactive)	> 100 µM (inactive)	> 100 µM (inactive)	> 100 µM (inactive)	> 100 µM (inactive)
O=C(/C=C/c1ccc(Cl)c(Cl)c1)c1ccccc1Cl	19.2 µM (inactive)	7.18 µM (inactive)	6.47 µM (inactive)	5.12 µM (inactive)	15.5 µM (inactive)	7.41 µM (inactive)	9.91 µM (inactive)	5.3 µM (inactive)	15.9 µM (inactive)
COc1cc2c3cc1Oc1c(OC)c(OC)cc4c1[C@@H](Cc1ccc(O)c(c1)Oc1ccc(cc1)C[C@@H]3N(C)CC2)N(C)CC4.c1ccccc1	11.4 µM (inactive)	13.4 µM (inactive)	16.3 µM (inactive)	19.1 µM (inactive)	47.1 µM (inactive)	12.4 µM (inactive)	5.32 µM (inactive)	–	–
CC1=C(N2CC2)C(=O)c2nc3n(c2C1=O)CCC3O (configuration not stated)	14.9 µM (inactive)	1.54 µM (inactive)	0.469 µM (active)	1.18 µM (inactive)	0.0296 µM (active)	0.679 µM (active)	0.804 µM (active)	1.03 µM (active)	–
C/C(=C\Cc1cc(O)ccc1O)CCc1c(C)cc(O)c(C=O)c1C [PANICEIN B3]	18.8 µM (inactive)	–	20.6 µM (inactive)	21.6 µM (inactive)	–	15.4 µM (inactive)	39.9 µM (inactive)	14.7 µM (inactive)	–
